The test system of the assay is myocardial infarction-induced rats. The assay is described as follows: Relative perfusion of the heart (99mTc-tetrofosmin autoradiography) in myocardial infarction model rats. Particulars: 200 μL through an apical puncture, after one week. It is filed as in vivo, Sprague-Dawley rats. Here is the method: First, 8-week-old Sprague-Dawley rats were purchased from Orientbio Inc., and acclimated for 3 days under conditions such as a temperature of 22±3° C., a relative humidity of 60±20%, an air ventilation cycle of 10 to 20 times/hour, a 12-hour light/dark cycle (light on 08:00 A.M. and light off 08:00 P.M.), sterile feed, and water supplies. […] After a week, ^99mtechnetium (Tc)-tetrofosmin was used as a myocardial perfusion imaging agent to obtain an autoradiographic images of rat hearts, and the relative perfusion was measured using a method represented by the following Equation 1 to evaluate an therapeutic effect of the VEGF-derived peptide. Relative perfusion (%)={(Activity value of ^99mTc-tetrofosmin in cardiac ischemic area)/Activity value of ^99mTc-tetrofosmin in septum)}×100 [Equation 1]
All the subsequent statistical analyses were performed using SAS ver. 9.2 (SAS Institute, Cary, US), the significance of difference was determined using a Duncan's multiple range test (MRT) and ANOVA, and a significant difference at p<0.05 was evaluated. All data was assumed to be significant within a range of 5%, and represented by an average±standard deviation (SD).

In the case of “Ac-MRIKPHQGQHI-NH2 [VEGF-derived peptide]”, the “perfusion-improving effect (relative perfusion) compared to the control (PBS)” value is “significant results were not observed”.

The values above are taken from US10617641B2, “Composition for preventing or treating ischemic diseases, containing liposomes in which VEGF-derived peptides are supported” (INDUSTRIAL COOPERATION FOUNDATION CHONBUK NATIONAL …, priority 2015, dated 2020).
